Several values for one entry are separate records, joined by “and”; a condition that tells them apart may be missing. Identical values can stand only once.
How the values were obtained:
[1] = system: proteasome CT-L active site; details: literature values of known proteasome inhibitors; reference per compound; cited from earlier work
[2] = system: proteasome C-L active site; details: literature values; ref 34 (bortezomib), 35 (ixazomib); cited from earlier work
[3] = molecular target: T1, 20S proteasome in K562 cell lysates, CT-L activity (Homo sapiens, UniProt P28074); experiment: Proteasome inhibition assay in cell lysates, K562, CT-L; details: for inhibition at 10 µM: read-out: percentage of proteasome inhibition, CT-L, cell lysates K562, at 10 µM; for inhibition at 100 µM: read-out: percentage of proteasome inhibition, CT-L, cell lysates K562, at 100 µM
T1 sequence (P28074 60-263): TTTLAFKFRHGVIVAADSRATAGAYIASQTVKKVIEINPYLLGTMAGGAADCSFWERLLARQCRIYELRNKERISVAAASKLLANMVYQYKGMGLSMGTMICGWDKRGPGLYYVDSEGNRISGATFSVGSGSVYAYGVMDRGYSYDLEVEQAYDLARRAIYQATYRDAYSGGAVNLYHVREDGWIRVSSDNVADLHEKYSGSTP
T1 sequence (P20618 29-241 partner): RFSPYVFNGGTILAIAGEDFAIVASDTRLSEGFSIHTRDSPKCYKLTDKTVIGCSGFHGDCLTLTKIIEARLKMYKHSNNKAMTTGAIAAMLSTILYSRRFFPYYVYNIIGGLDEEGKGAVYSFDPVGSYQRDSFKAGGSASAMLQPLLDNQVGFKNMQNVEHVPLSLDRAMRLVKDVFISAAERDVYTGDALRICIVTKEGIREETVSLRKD
Experimental: Cells were obtained from several cultured cell lines: Jurkat, K562, HT-29, and HCT116. Pellets with 20 × 10^6 cells were prepared and washed with cold sterile phosphate buffered saline (PBS), 1×, pH 7.4 (Gibco, Thermo Fisher Scientific, Paisley, UK). The preparation of the lysates from several cell lines was performed based on the methodology described by Gavioli et al. [67]. Cells were resuspended in buffer containing 50 mM TRIS-HCl pH 7.4 (Nzytech, Lisboa, Portugal), 5 mM MgCl2 (≥98% purity, Merck, Hamburg, Germany), 1 mM DTT (Merck, Hamburg, Germany), 2 mM ATP (≥98% purity, Enzo Life Sciences Inc., Farmingdale, NY, USA), and 250 mM saccharose (Merck, Hamburg, Germany). Glass beads (Merck, Hamburg, Germany) equivalent to the volume of the cell suspension were added, and the mixture was vortexed for 2 min at 4 °C. Beads and cell debris were removed using 5 min centrifugation at 1000× g and 4 °C, followed by 20 min of centrifugation at 10,000× g at 4 °C. Cell lysates containing proteasomes were resuspended in “activity buffer” [50 mM TRIS-HCl (pH 7.4), 5 mM MgCl2, 1 mM DTT, 2 mM ATP (≥98% purity, Enzo Life Sciences Inc., Farmingdale, NY, USA), and 500 µM EDTA (≥98% purity, Merck, Hamburg, Germany)]. Protein concentration was determined using the Pierce™ BCA protocol (Thermo Fisher Scientific, Rockford, IL, USA). […] DMSO was added in an equal volume as used for the untreated compounds as a way to assess/control its influence in the assay. Untreated cells were used as control. In each well of a 96-well plate, 25 µL of lysate were seeded in duplicate with 25 µL of the compound to test; in the control, 25 µL of activity buffer were added to the 25 µL of lysate. A blank (50 µL of activity buffer) was added to the wells in quadruplicate. Cell lysates, pre-treated or not with different concentrations of the test compounds, were incubated for 30 min at 37 °C. […] Stock solutions (10 mM) of each substrate were prepared in DMSO, diluted in activity buffer, and 50 µL were added to all wells (final concentration of each substrate = 100 µM), followed by an incubation at 37 °C for 60 min. Samples fluorescence was measured at an excitation wavelength of 360 nm and emission of 465 nm; the fluorescence measures were performed using the GloMax-Multi + Detection System (Promega Corp., Madison, WI, USA). Activity was evaluated in fluorescence units, after being converted to percentage of proteasome inhibition and, whenever possible, expressed as IC50 by plotting the inhibition data of each compound at different concentrations against the log of the concentration of the inhibitor, using the GraphPad Prism software version 7. At least eight different concentrations of the test compounds were used.

K562 cells = experiment: Cell viability, MTT assay, K562; format: cell-based, human; details: at 100 µM, 72 h
Experimental: Whenever possible, additional concentrations were tested and IC50 values were determined.
Human leukemia Jurkat E6.1 T-cell line and K562-cell line were originally obtained from ATCC Collections (Manassas, VA, USA); human HT-29 and HCT116 colorectal carcinoma-cell lines were obtained from ECACC (Porton Down, Porton, UK). Cells were passaged for less than 6 months after and routinely tested for mycoplasma contamination using Mycoalert detection kit (Lonza, Basel, Switzerland). Jurkat, K562, and HT-29 cells were maintained in Roswell Park Memorial Institute (RPMI) 1640 with GlutaMAX™, supplemented with 1% antibiotic mixture (100 µg/mL streptomycin and 100 U/mL penicillin) and 10% heat-inactivated foetal bovine serum (FBS) (all from Gibco, Thermo Fisher Scientific, Paisley, UK). HCT116 cells were maintained in Dulbecco’s Modified Eagle Medium (DMEM) with GlutaMAX™, supplemented with 1% antibiotic mixture (100 µg/mL streptomycin and 100 U/mL penicillin) and 10% heat-inactivated FBS (all from Gibco, Thermo Fisher Scientific, Paisley, UK). Incubation was performed at 37 °C in a 5% CO2 atmosphere. Cells were routinely passaged every 2 or 3 days at 70–90% confluence; TrypLE Express (Gibco, Thermo Fisher Scientific, Paisley, UK) was used as dissociation agent for adherent cells. Trypan blue (Gibco, Thermo Fisher Scientific, Paisley, UK) was used to assess cell viability using the dye exclusion test.
To assess cell viability, the MTT assay was performed. Jurkat/K562/HT-29/HCT116 cell lines were seeded in triplicate (10,000 cells/well) in 96-well plates with 50 µL of complete medium and incubated at 37 °C, 5% CO2 for 24 h to allow the cells to adhere to the plate (in the case of adherent cells). […] Untreated cells seeded in triplicate were used as control. The blank was performed in triplicate with 100 µL of culture medium. The cells were incubated with the compounds, in triplicate, in 100 µL of total volume, at 37 °C, 5% CO2 for 72 h. […] In suspension cells (Jurkat), 25 µL of MTT were directly added to each well and, after 3 h 30 m of incubation, 100 µL of DMSO were added to solubilize the formazan crystals; in adherent cells (HT-29 and HCT116), the culture medium was removed, 25 µL of MTT were added to each well and, after 3 h 30 m of incubation, upon MTT removal, 100 µL of DMSO were added to solubilize the formazan crystals. After 15 min, the samples absorbance was measured at 570 nm and the percentage of cell viability was determined.

[4] = at 100 µM, Table 2 legend: bortezomib 10 µM
[5] = Table 2 legend: bortezomib 10 µM

Row | percentage of proteasome inhibition, CT-L, cell lysates K562 ([3]; at 10 µM) | percentage of proteasome inhibition, CT-L, cell lysates K562 [3, 4] | inhibition at 10 µM [3] | inhibition at 100 µM [3, 5] | Structure (SMILES) | IC50 [1] | IC50 [2] | percentage of cell viability, MTT, K562 (K562 cells)
1 | 95.17% | 99.60% and 100% |  |  | CC(C)C[C@H](NC(=O)[C@H](Cc1ccccc1)NC(=O)c1cnccn1)B(O)O [Bortezomib, bortezomib, reference compound] | 7 nM | 74 nM | 
2 |  | 63% | 0% | 62.7% | Cc1ccc2ccccc2c1CSc1ncnc2c1ncn2C1OC(CO)C(O)C1O (stereo not drawn) [Compound 1] |  |  | 18%
3 |  | 40% | 13.2% | 40.1% | O=C1c2ccccc2C(=O)c2c(Nc3ccc(S(=O)(=O)N(CCO)CCO)cc3)ccc(O)c21 [Compound 2] |  |  | 86.52%
4 |  | 59% | 9.34% | 59.1% | Cc1ccc(/C(=N/NS(=O)(=O)c2ccc([N+](=O)[O-])cc2)Sc2cc(Cl)c(C)cc2S(N)(=O)=O)cc1 [Compound 3] |  |  | 

Reference: PMC10458307, “New Scaffolds of Proteasome Inhibitors: Boosting Anticancer Potential by Exploiting the Synergy of In Silico and In Vitro Methodologies” (Pharmaceuticals, 2023)
